Measured values as given in patent US8012949B2, “Bisphosphonate compounds and methods with enhanced potency for multiple targets including FPPS, GGPPS, and DPPS” (The Board of Trustees of the University of Illinois, priority 2004, dated 2011).
Where two headings read alike, the source gives them in different places.

Legend:
[1] = system: SF-268 (central nervous system glioblastoma); assay: SF-268 cell growth inhibition (MTT); type: cell-based, human; conditions: Table 1, experimental; for IC50: Homo sapiens, SF-268, read-out: SF-268 pIC50 (converted)
Source text: (§1) Cell Growth Inhibition Assays. […] A broth microdilution method was used to determine IC50 values for growth inhibition by each bisphosphonate. […] NBPs were typically initially dissolved in H2O (0.01 M) while NNBPs were typically dissolved in DMSO (0.01 M).
(§2) GraphPad PRISM® version 4.0 software for windows (GraphPad Software Inc., San Diego, Calif., www.graphpad.com) was used to fit the data to a rectangular hyperbolic function: I=(ImaxC)/(IC50+C); […]

[2] = system: MCF-7 (breast adenocarcinoma); assay: MCF-7 cell growth inhibition (MTT), incl. FOH/GGOH rescue; type: cell-based, human; conditions: for IC50: Homo sapiens, MCF7
Source text: as §1
GraphPad PRISM® version 4.0 software for windows (GraphPad Software Inc., San Diego, Calif., www.graphpad.com) was used to fit the data to a rectangular hyperbolic function: I=(ImaxC)/(IC50+C);
For the “rescue” experiments, stock solutions of FOH or GGOH were prepared (in ethanol) and the requisite amounts added to the incubation media to produce a fixed 20 μM concentration.

[3] = system: NCI-H460 (lung large cell); assay: NCI-H460 cell growth inhibition (MTT); type: cell-based, human; conditions: Table 1, experimental; for IC50: Homo sapiens, NCI-H460, read-out: NCI-H460 pIC50 (converted)
Source text: as §1, §2

human FPPS = biological target: T1, human FPPS (Homo sapiens, UniProt P14324); assay: human FPPS enzyme inhibition; type: biochemical; conditions: for Ki / FPPS pKi (M): Table 1, experimental; for Ki: read-out: FPPS pKi (converted); for IC50: Table 9, read-out: H. sapiens FPPS IC50
T1 construct: made in house
T1 sequence (P14324 1-419): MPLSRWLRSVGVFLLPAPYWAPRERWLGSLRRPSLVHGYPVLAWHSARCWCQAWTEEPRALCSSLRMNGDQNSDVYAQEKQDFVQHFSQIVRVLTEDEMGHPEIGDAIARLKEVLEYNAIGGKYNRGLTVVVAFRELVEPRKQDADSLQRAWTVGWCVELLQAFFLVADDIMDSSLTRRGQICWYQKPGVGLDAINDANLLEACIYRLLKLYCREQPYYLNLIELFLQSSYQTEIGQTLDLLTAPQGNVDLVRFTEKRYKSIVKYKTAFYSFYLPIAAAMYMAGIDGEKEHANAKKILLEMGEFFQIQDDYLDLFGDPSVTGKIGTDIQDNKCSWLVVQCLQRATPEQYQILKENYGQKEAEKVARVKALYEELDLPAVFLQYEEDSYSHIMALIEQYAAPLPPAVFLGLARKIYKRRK
Source text: (§3) To test our polypharmaceutical hypothesis, we expressed three enzymes: human FPPS, GGPPS and DPPS, and tested each for their inhibition by a series of bisphosphonates.

human DPPS = biological target: T2, human DPPS (Homo sapiens, UniProt Q5T2R2); assay: human DPPS enzyme inhibition; type: biochemical; conditions: Table 1, experimental; for Ki: read-out: DPPS_pKi (converted)
T2 construct: made in house
T2 sequence (Q5T2R2 1-415): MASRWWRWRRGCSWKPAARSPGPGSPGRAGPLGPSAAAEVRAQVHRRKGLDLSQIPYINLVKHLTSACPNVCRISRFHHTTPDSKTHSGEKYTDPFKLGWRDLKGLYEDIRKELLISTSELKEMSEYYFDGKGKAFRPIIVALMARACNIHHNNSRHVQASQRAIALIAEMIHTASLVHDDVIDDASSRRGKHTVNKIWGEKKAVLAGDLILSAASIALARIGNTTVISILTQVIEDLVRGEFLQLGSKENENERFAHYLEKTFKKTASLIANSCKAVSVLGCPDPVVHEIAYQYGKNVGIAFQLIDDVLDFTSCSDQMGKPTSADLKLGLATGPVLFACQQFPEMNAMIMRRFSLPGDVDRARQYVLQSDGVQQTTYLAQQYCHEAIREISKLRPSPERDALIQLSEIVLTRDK
T2 sequence (Q86YH6 1-399 partner): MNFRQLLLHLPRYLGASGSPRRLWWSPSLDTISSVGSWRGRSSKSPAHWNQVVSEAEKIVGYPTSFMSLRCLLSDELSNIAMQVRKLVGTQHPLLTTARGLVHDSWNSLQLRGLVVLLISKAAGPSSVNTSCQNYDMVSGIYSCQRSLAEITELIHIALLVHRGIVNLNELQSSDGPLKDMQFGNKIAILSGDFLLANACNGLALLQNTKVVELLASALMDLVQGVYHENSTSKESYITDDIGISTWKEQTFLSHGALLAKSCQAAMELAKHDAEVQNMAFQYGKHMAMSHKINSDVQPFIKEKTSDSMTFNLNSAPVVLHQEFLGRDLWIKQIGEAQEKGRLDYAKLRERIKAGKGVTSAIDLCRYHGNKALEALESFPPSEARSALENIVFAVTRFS
Source text: as §3

Vγ2Vδ2 T cells = assay: γδ T cell activation (TNF-α release and proliferation); type: cell-based, human; conditions: Table 2, -log10(value, M); for EC50: Homo sapiens, T-cell, read-out: γδ T Cell Avg pED50 (converted)
Experimental: γδ T Cell Assays. Vγ2Vδ2 T cell TNF-α release and proliferation were performed basically as described previously^1. Briefly, to measure bioactivity for Vγ2Vδ2 T cells, the CD4^+ JN.24, CD4^+ HF.2, CD8αα^+ 12G12, or the CD4^−8^− HD.108 Vγ2Vδ2 T cell clones were stimulated with phosphoantigens in the presence of CP.EBV (an EBV transformed B cell line) for CD4^+ clones or Va-2 (a transformed fibroblast) for CD8αα^+ and CD4^−8^− clones. CP.EBV and Va-2 were fixed with 0.05% glutaraldehyde (EM grade, Sigma, Mo.) for use as APCs. […] Curve fitting minima for each experiment (e.g. TNF-α release from JN.24 cells) were determined using the Global Fitting technique, as implemented in Prism 4.0. Curve fitting maxima were optimized for each individual compound without the use of any constraints.

[4] = biological target: T3, human recombinant geranylgeranyl diphosphate synthase (hGGPPS) (Homo sapiens, UniProt O95749); assay: Human recombinant GGPPS inhibition (radiometric assay); type: biochemical; conditions: Table 1, experimental; for Ki: read-out: GGPPS pKi (converted)
T3 construct: made in house
T3 sequence (O95749 1-300): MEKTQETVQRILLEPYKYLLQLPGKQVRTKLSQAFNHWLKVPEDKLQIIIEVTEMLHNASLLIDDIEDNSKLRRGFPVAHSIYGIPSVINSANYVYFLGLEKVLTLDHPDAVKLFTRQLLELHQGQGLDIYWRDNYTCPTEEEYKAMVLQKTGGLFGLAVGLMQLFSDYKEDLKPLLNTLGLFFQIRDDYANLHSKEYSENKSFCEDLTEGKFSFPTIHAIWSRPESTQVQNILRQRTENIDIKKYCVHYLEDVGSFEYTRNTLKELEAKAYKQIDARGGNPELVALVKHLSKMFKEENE
Experimental: as §3
Human recombinant GGPPS inhibition. The purification of human recombinant geranylgeranyl diphosphate synthase (hGGPPS) followed the protocol reported previously^2. GGPPS inhibition by bisphosphonates was determined using the radiometric assay reported previously^2 with slight modification. […] IPP and incubated at 37° C. for 20 min. The reaction was terminated by the addition of 75 μL of HCl/MeOH. Following a second 20 min incubation at 37° C. to effectively hydrolyze the allylic pyrophosphates, the reaction mixtures were neutralized by the addition of 75 μL of 6 N NaOH and extracted with 500 μL of hexane. 200 μL of the organic phase was transferred to a scintillation vial for counting. The IC50 values were obtained by fitting the data to the dose-response curve in Origin 6.1 (OriginLab Corp., Northampton, Mass., www.OriginLab.com).

T. brucei FPPS = T. brucei FPPS inhibition; type: biochemical, Trypanosoma brucei; conditions: Table 9
[5] = Table 1, experimental, read-out: MCF-7 pIC50 (converted)
[6] = Table 2, -log10(value, M), read-out: MCF-7 Cell pIC50 (converted)

Row | Structure (SMILES) | SF-268 pIC50 (M) [1] | MCF-7 pIC50 (M) ([2]; Table 1, experimental) | MCF-7 Cell pIC50 (M) ([2]; Table 2, -log10(value, M)) | NCI-H460 pIC50 (M) [3] | FPPS pKi (M) (human FPPS) | DPPS pKi (human DPPS) | γδ T Cell Avg pED50 (M) (Vγ2Vδ2 T cells) | also measured
1 | CCCCCCCCc1cc[n+](CC(P(=O)([O-])O)P(=O)(O)O)cc1 (centres unmarked) [BPH-717] |  |  |  |  |  |  |  | IC50 [1]: 0.631 µM; IC50 [2, 5]: 0.501 µM; IC50 [3]: 0.631 µM; Ki (human FPPS): 0.02 µM; Ki (human DPPS): 0.0794 µM
2 | CCCCCCCCCCc1ccc[n+](CC(P(=O)([O-])O)P(=O)(O)O)c1 (centres unmarked) [BPH-638] |  |  |  |  |  |  |  | IC50 [1]: 0.2 µM; IC50 [2, 5]: 0.158 µM; IC50 [2, 6]: 0.17 µM; IC50 [3]: 0.158 µM; Ki (human FPPS): 0.0158 µM; Ki (human DPPS): 0.501 µM; EC50 (Vγ2Vδ2 T cells): 1.7 µM
3 | Cc1ccc[n+](CC(P(=O)([O-])O)P(=O)(O)O)c1 (centres unmarked) [BPH-474] | 4.1 M | 4.1 M | 4.42 M | 4.2 M | 8.4 M | 6.9 | 3.85 M | 
4 | O=P([O-])(O)C(C[n+]1cccc(-c2ccccc2)c1)P(=O)(O)O (centres unmarked) [BPH-472] | 4.3 M | 4.4 M | 4.46 M | 4.3 M | 8.6 M | 7.1 | 4.07 M | GGPPS pKi (M) [4]: 6.6 M
5 | C[S+](C)CC(O)(P(=O)(O)O)P(=O)(O)O [BPH-527, (2-Hydroxy-2,2-bis-phosphono-ethyl)-dimethyl-sulfonium] |  |  | 3.36 M |  |  |  | 3.87 M | IC50 (human FPPS): 1.03 µM; IC50 (T. brucei FPPS): 0.78 µM
6 | O=P([O-])(O)C(C[n+]1cccc(Br)c1)P(=O)(O)O (centres unmarked) [BPH-483] | 4.0 M | 4.0 M | 3.84 M | 4.1 M | 8.5 M | 6.8 | 4.04 M | 
7 | CCCCCCCOc1ccc[n+](CC(P(=O)([O-])O)P(=O)(O)O)c1 (centres unmarked) [BPH-722] |  |  |  |  |  |  |  | IC50 [1]: 1 µM; IC50 [2, 5]: 2.51 µM; IC50 [2, 6]: 0.468 µM; IC50 [3]: 0.501 µM; Ki (human DPPS): 0.00631 µM; EC50 (Vγ2Vδ2 T cells): 27.5 µM; Ki [4]: 0.0631 µM
8 | C[As+](C)(C)CC(O)(P(=O)([O-])O)P(=O)(O)O (centres unmarked) [BPH-560] |  |  | 2.71 M |  |  |  | 3.37 M | IC50 (human FPPS): 1.13 µM; IC50 (T. brucei FPPS): 275 µM
9 | CCCCC[S+](C)CC(P(=O)([O-])O)P(=O)(O)O (centres unmarked) [BPH-684] |  |  |  |  |  |  |  | IC50 [1]: 200 µM; IC50 [2, 5]: 251 µM; IC50 [2, 6]: 129 µM; IC50 [3]: 158 µM; Ki (human FPPS): 0.01 µM; Ki (human DPPS): 0.1 µM; EC50 (Vγ2Vδ2 T cells): 126 µM; Ki [4]: 0.251 µM
10 | C[S+](C)CCC(O)(P(=O)([O-])O)P(=O)(O)O (centres unmarked) [BPH-540] |  |  | 2.68 M |  |  |  | 3.59 M | IC50 (human FPPS): 9 µM; IC50 (T. brucei FPPS): 11.3 µM
11 | CCCCCCCCCCCCCC[S+](C)CC(P(=O)([O-])O)P(=O)(O)O (centres unmarked) [BPH-694] | 5.9 M | 4.9 M | 6.69 M | 6.0 M | 7.1 M | 6.6 | 6.20 M | 
12 | O=P([O-])(O)C(O)(C[n+]1cccc(-c2ccccc2)c1)P(=O)(O)O (centres unmarked) [BPH-300] | 4.5 M | 4.4 M |  | 4.5 M | 8.3 M | 6.9 |  | 
13 | O=P([O-])(O)C(O)(C[n+]1cccc(-c2c[nH]cn2)c1)P(=O)(O)O (centres unmarked) [BPH-679] | 4.5 M | 4.4 M | 4.65 M | 4.3 M | 8.2 M | 6 | 3.34 M | GGPPS pKi (M) [4]: 5.0 M
14 | C[P+](C)(C)CC(O)(P(=O)([O-])O)P(=O)(O)O (centres unmarked) [BPH-536] |  |  | 3.24 M |  |  |  | 3.72 M | IC50 (human FPPS): 12.1 µM; IC50 (T. brucei FPPS): 26.1 µM
15 | CCOCCOCCCc1ccc[n+](CC(P(=O)([O-])O)P(=O)(O)O)c1 (centres unmarked) [BPH-727] | 3.7 M | 3.5 M | 3.62 M | 3.5 M | 8.2 M | 6.8 | 3.77 M | 
16 | CCCCCCCCc1ccc[n+](CC(P(=O)([O-])O)P(=O)(O)O)c1 (centres unmarked) [BPH-637] |  |  |  |  |  |  |  | IC50 [1]: 1.26 µM; IC50 [2, 5]: 0.251 µM; IC50 [2, 6]: 0.219 µM; IC50 [3]: 2 µM; Ki (human DPPS): 0.501 µM; EC50 (Vγ2Vδ2 T cells): 12.6 µM; Ki [4]: 0.0398 µM
17 | CC(C)CCCC(C)CCOc1ccc[n+](CC(P(=O)([O-])O)P(=O)(O)O)c1 (centres unmarked) [BPH-728] | 4.9 M | 4.5 M | 5.59 M | 4.6 M | 6.8 M | 6.3 | 5.28 M | 
18 | O=P([O-])(O)C(O)(C[n+]1ccccc1)P(=O)(O)O (centres unmarked) [BPH-278] | 4.3 M | 4.1 M | 4.10 M | 4.1 M | 8.6 M | 7.2 | 4.20 M | 
